How the values were obtained:
Galectin-3 = Galectin-3 (Homo sapiens, UniProt P17931); assay: Biological Assay
Experimental: (§1) The inhibitory activity of compounds is determined in competitive binding assays. This spectrophotometric assay measures the binding of biotinylated human Gal-3 (hGal-3) or human Gal-1 (hGal-1), respectively, to a microplate-adsorbed glycoprotein, asialofetuin (ASF) (Proc Natl Acad Sci USA. 2013 Mar. 26; 110(13):5052-7.). Alternatively, and preferably, a human Gal-1 version in which all six cysteines are substituted by serines may be used. Briefly, compounds are serially diluted in DMSO (working dilutions). ASF-coated 384 well plates are supplemented with 22.8 μL/well of biotinylated hGal-3 or hGal-1 in assay buffer (i.e. 300-1000 ng/mL biotinylated hGal-3 or hGal-1) to which 1.2 μL of compound working dilutions are added and mixed. Plates are incubated for 3 hours at 4° C., then washed with cold assay buffer (3×50 uL), incubated for 1 hour with 25 μL/well of a streptavidin-peroxidase solution (diluted in assay buffer to 80 ng/mL) at 4° C., followed by further washing steps with assay buffer (3×50 uL). Finally, 25 μL/well of ABTS substrate is added.

Galectin-1 = Galectin-1 (Homo sapiens, UniProt P09382); assay: Biological Assay
Experimental: as §1

Galectin-3, sequence (P17931 whole entry): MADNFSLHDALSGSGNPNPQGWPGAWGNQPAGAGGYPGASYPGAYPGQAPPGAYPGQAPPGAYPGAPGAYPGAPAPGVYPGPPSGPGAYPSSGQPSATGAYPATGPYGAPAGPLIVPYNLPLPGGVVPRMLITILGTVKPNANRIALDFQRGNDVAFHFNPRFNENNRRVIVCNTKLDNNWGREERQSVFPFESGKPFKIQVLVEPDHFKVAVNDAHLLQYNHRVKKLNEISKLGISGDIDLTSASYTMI
Galectin-1, sequence (P09382 whole entry): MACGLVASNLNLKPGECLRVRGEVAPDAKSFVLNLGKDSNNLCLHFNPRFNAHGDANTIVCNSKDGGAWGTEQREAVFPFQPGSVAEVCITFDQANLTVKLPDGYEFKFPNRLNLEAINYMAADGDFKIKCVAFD

| Compound | IC50 (Galectin-3) | IC50 (Galectin-1) |
| --- | --- | --- |
| CO[C@@H]1[C@@H](n2cc(-c3cc(F)cc(Br)c3)nn2)[C@@H](O)[C@@H](CO)O[C@H]1C(=O)N(c1cc(Br)cc(C#N)c1)[C@H]1CCC[C@@H]1O [US20230348442, Example 1.10.5] | 69.2 nM |  |
| CO[C@@H]1[C@@H](n2cc(-c3cc(F)c(F)c(F)c3)nn2)[C@@H](O)[C@@H](CO)O[C@H]1C(=O)N(c1cc(C)cc(Br)c1)[C@H]1CC[C@@H]1O [US20230348442, Example 2.1.12] | 111 nM |  |

Now those with a lower IC50 (Galectin-3), led by results:

| IC50 (Galectin-3) | IC50 (Galectin-1) | Compound |
| --- | --- | --- |
| 19.9 nM |  | N#Cc1cc(Cl)cc(N(C(=O)[C@@H]2O[C@H](CO)[C@H](O)[C@H](n3cc(-c4cc(F)c(Cl)c(F)c4)nn3)[C@H]2O)[C@H]2CCC[C@@H]2O)c1 [US20230348442, Example 1H.5.4] |
| 25.5 nM |  | CO[C@@H]1[C@@H](n2cc(-c3cc(F)c(Br)c(F)c3)nn2)[C@@H](O)[C@@H](CO)O[C@H]1C(=O)N(c1cc(Br)cc(C#N)c1)[C@H]1CCC[C@@H]1O [US20230348442, Example 1.6.5] |
| 29.4 nM | 2090 nM | O=C([C@@H]1O[C@H](CO)[C@H](O)[C@H](n2cc(-c3cc(F)c(F)c(F)c3)nn2)[C@H]1O)N(c1cc(Cl)cc(Cl)c1)[C@H]1CCC[C@@H]1O [US20230348442, Example 1H.1.2] |

— BindingDB's records for patent US20230348442 (Idorsia Pharmaceuticals, 2023)
